Ends that are not written are not given here.
What was measured:
[1] = tested on: Staphylococcus aureus (ATCC 6538); test: Microtiter plate antimicrobial assay (relative growth rate, A600); assay type: cell-based; settings: synthetic peptide; for MIC50: 10 mg/mL stock in distilled water, 10^6 CFU/mL, overnight culture 37 °C, A600, Figure 5B
Procedure: (§1) The cell-free supernatant of P. silvilitoris or all E. coli DH5α strains containing cloned AMPs was collected after 24 h of culture and filtered through a 0.2-μm syringe (mixed cellulose esters (MCE), Merck, Darmstadt, Germany), and finally the cell-free supernatant was used for the evaluation of antimicrobial activity. The cell-free supernatant from the E. coli DH5α, harboring only the plasmid vector without the PS_AMP genes, was confirmed as a negative control to have very little effect on antimicrobial activities. The synthesized AMPs were suspended at a concentration of 10 mg/mL in distilled water and then used for antimicrobial activity.
(§2) The antimicrobial activities against S. Typhimurium (KCTC12401), E. coli (ATCC 10536), B. cereus (ATCC 11778), S. iniae (KCTC3657), S. aureus (ATCC 6538) and C. albicans (KCTC7122) were analyzed using the microtiter plate method and expressed as minimal inhibition concentration (MIC); the bacteria pre-cultured overnight (O/N) were mixed with 10^6 CFU/mL with the cell-free supernatant or the synthetic peptides, the reaction mixtures were added to the microtiter plate, and finally the reactivity was observed by the O/N culture at 37 °C. […] The relative activity of the treated samples was then expressed as a ratio of their A600 values to that of the control.Relative growth rate = A/B A: the treated sample A600 value B: non-treated (control) A600 value

[2] = tested on: Escherichia coli (ATCC 10536); test: as above; assay type: cell-based; settings: synthetic peptide, 10 mg/mL stock in distilled water, 10^6 CFU/mL, overnight culture 37 °C, Figure 5A
Procedure: as §1, §2

Sequence	MIC50 [1]	MIC50 [2]	estimated MIC50 ([1]; test strain not printed, AMP4.1 value agrees with the S. aureus value of b25)
LKLKKEQIELLKKIANK [PS_AMP11.1]	2000 µg/mL	1900 µg/mL	–
GLFDFFKKKDKTTDEQEALDK [PS_AMP4.2]	–	–	3000 µg/mL
DKGLEKTKDNFF [PS_AMP4.1]	2200 µg/mL	–	–

Reference: PMC12250211, “Discovery of Novel Genes Encoding Antimicrobial Peptides from the Pedobacter silvilitoris Genome with Broad-Spectrum Antimicrobial Activity” (International Journal of Molecular Sciences, 2025)
